pIC50: −log10 of the molar value. Several values for one entry are separate records, joined by “and”; a condition that tells them apart may be missing. Equal entries are not always repeated.

Experiment [1] has as its system KDR. On the set-up: method as in PMID 20020776. The following applies: read-out: reported KDR IC50; cited from earlier work.
In experiment [2] the target is T1, CK2α1 (Homo sapiens, UniProt P68400).
T1 construct: purchased Nanosyn (enzymatic panel); SGC in-house recombinant human kinases (DSF panel); Invitrogen (ALK1-6)
Description: DSF thermal shift. It counts as binding. The following applies: 10 µM inhibitor; read-out: Tm shift. The gist of the method:
(§1)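 Thermal melt, qPCR cycler; kinase 1–2 µM, compound 10 µM.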

The target of experiment [3] is T2, PCTAIRE1 (Homo sapiens, UniProt Q00536).
T2 construct: purchased Nanosyn (enzymatic panel); SGC in-house recombinant human kinases (DSF panel); Invitrogen (ALK1-6)
Description: DSF thermal shift. It counts as binding. The following applies: 10 µM inhibitor; read-out: Tm shift. The essentials: as §1

For experiment [4], the target named is T3, CLK1 (Homo sapiens, UniProt P49759).
T3 construct: purchased Nanosyn (enzymatic panel); SGC in-house recombinant human kinases (DSF panel); Invitrogen (ALK1-6)
Description: DSF thermal shift. It counts as binding. The following applies: 10 µM inhibitor; read-out: Tm shift. The essentials:
as §1

Experiment [5] has as its target T4, PKD2 (Homo sapiens, UniProt Q9BZL6).
T4 construct: purchased Nanosyn (enzymatic panel); SGC in-house recombinant human kinases (DSF panel); Invitrogen (ALK1-6)
Description: DSF thermal shift. It counts as binding. The settings on record: 10 µM inhibitor; read-out: Tm shift. The essentials:
as §1

For experiment [6], the target named is T5, DCAMKL1 (Homo sapiens, UniProt O15075).
T5 construct: purchased Nanosyn (enzymatic panel); SGC in-house recombinant human kinases (DSF panel); Invitrogen (ALK1-6)
Nature of the experiment: DSF thermal shift. It counts as binding. The following applies: 10 µM inhibitor; read-out: Tm shift. The gist of the method:
as §1

Experiment [7] concerns the target T6, DYRK1A (Homo sapiens, UniProt Q13627).
T6 construct: purchased Nanosyn (enzymatic panel); SGC in-house recombinant human kinases (DSF panel); Invitrogen (ALK1-6)
Description: DSF thermal shift. The settings on record: 10 µM inhibitor; read-out: Tm shift. It counts as binding. The gist of the method: as §1

Experiment [8] addresses T7, AAK1 (Homo sapiens, UniProt Q2M2I8).
T7 construct: purchased Nanosyn (enzymatic panel); SGC in-house recombinant human kinases (DSF panel); Invitrogen (ALK1-6)
Nature of the experiment: DSF thermal shift. It counts as binding. The settings on record: 10 µM inhibitor; read-out: Tm shift. The gist of the method: as §1

The target in experiment [9] is T8, CDKL1 (Homo sapiens, UniProt Q00532).
T8 construct: purchased Nanosyn (enzymatic panel); SGC in-house recombinant human kinases (DSF panel); Invitrogen (ALK1-6)
Description: DSF thermal shift. It counts as binding. The settings on record: 10 µM inhibitor; read-out: Tm shift. The gist of the method: as §1

For experiment [10], the target named is T9, MYLK4 (Homo sapiens, UniProt Q86YV6).
T9 construct: purchased Nanosyn (enzymatic panel); SGC in-house recombinant human kinases (DSF panel); Invitrogen (ALK1-6)
Nature of the experiment: DSF thermal shift. The settings on record: 10 µM inhibitor; read-out: Tm shift. It counts as binding. The essentials: as §1

Experiment [11] has as its target T10, AKT3 (Homo sapiens, UniProt Q9Y243).
T10 construct: purchased Nanosyn (enzymatic panel); SGC in-house recombinant human kinases (DSF panel); Invitrogen (ALK1-6)
Nature of the experiment: DSF thermal shift. It counts as binding. The following applies: 10 µM inhibitor; read-out: Tm shift. The essentials:
as §1

Experiment [12] has as its target T11, PKCη (Homo sapiens, UniProt P24723).
T11 construct: purchased Nanosyn (enzymatic panel); SGC in-house recombinant human kinases (DSF panel); Invitrogen (ALK1-6)
Description: DSF thermal shift. The settings on record: 10 µM inhibitor; read-out: Tm shift. It counts as binding. The gist of the method: as §1

In experiment [13] the target is T12, ALK1 (Homo sapiens, UniProt P37023).
T12 construct: purchased Nanosyn (enzymatic panel); SGC in-house recombinant human kinases (DSF panel); Invitrogen (ALK1-6)
Nature of the experiment: DSF thermal shift. It counts as binding. The settings on record: 10 µM inhibitor; read-out: Tm shift. The essentials:
as §1

The target in experiment [14] is T13, CK1γ3 (Homo sapiens, UniProt Q9Y6M4).
T13 construct: purchased Nanosyn (enzymatic panel); SGC in-house recombinant human kinases (DSF panel); Invitrogen (ALK1-6)
Description: DSF thermal shift. The following applies: 10 µM inhibitor; read-out: Tm shift. It counts as binding. The gist of the method: as §1

The target of experiment [15] is T14, ALK6 (Homo sapiens, UniProt O00238).
T14 construct: purchased Nanosyn (enzymatic panel); SGC in-house recombinant human kinases (DSF panel); Invitrogen (ALK1-6)
Nature of the experiment: DSF thermal shift. It counts as binding. The settings on record: 10 µM inhibitor; read-out: Tm shift. The essentials: as §1

The target of experiment [16] is T15, DRAK1 (Homo sapiens, UniProt Q9UEE5).
T15 construct: purchased Nanosyn (enzymatic panel); SGC in-house recombinant human kinases (DSF panel); Invitrogen (ALK1-6)
Nature of the experiment: DSF thermal shift. The following applies: 10 µM inhibitor; read-out: Tm shift. It counts as binding. The essentials: as §1

Experiment [17] deals with T16, GAK (Homo sapiens, UniProt O14976).
T16 construct: purchased Nanosyn (enzymatic panel); SGC in-house recombinant human kinases (DSF panel); Invitrogen (ALK1-6)
Nature of the experiment: DSF thermal shift. It counts as binding. The settings on record: 10 µM inhibitor; read-out: Tm shift. The gist of the method:
as §1

Experiment [18] has as its target T17, TNIK (Homo sapiens, UniProt Q9UKE5).
T17 construct: purchased Nanosyn (enzymatic panel); SGC in-house recombinant human kinases (DSF panel); Invitrogen (ALK1-6)
Nature of the experiment: DSF thermal shift. It counts as binding. The settings on record: 10 µM inhibitor; read-out: Tm shift. The gist of the method: as §1

The target in experiment [19] is T18, GRK3 (Homo sapiens, UniProt P35626).
T18 construct: purchased Nanosyn (enzymatic panel); SGC in-house recombinant human kinases (DSF panel); Invitrogen (ALK1-6)
Nature of the experiment: DSF thermal shift. The settings on record: 10 µM inhibitor; read-out: Tm shift. It counts as binding. The essentials:
as §1

Experiment [20] has as its system Activin A-induced P-Smad2 in HEK293 cells. Nature of the experiment: Activin A-induced P-Smad2, Western blot. It counts as cell-based. The settings on record: for inhibition of Smad2 phosphorylation: 0.5 µM, Activin A; for inhibition of Activin A-induced P-Smad2: qualitative. As for the experimental part: (§2) C2C12 and HEK293 cells were grown in DMEM supplemented with 10% FCS (PAA) and seeded at a density of 1 x 10^5 cells per well in 6-well plates. The next day the cells were starved in DMEM containing 1% FCS for 5 hours. Inhibitors were added at the indicated concentrations for 30 minutes followed by 10 ng/mL BMP4 (Peprotech), 100 ng/mL BMP6 (Peprotech), 100 ng/mL Activin A (Peprotech) or 2 ng/mL TGF-β1 (Cell Signaling) for 1 hour. Cells were washed in PBS and lysed on ice for 30 minutes in lysis buffer (20 mM Tris-HCl pH 7.5, 150 mM NaCl, 1% Triton X-100, 25 mM NaF, 25 mM Na β-glycerophosphate, 2 mM Na3VO4) containing protease inhibitors (Roche). Protein concentration in the clarified lysate was determined by Bradford Assay (Pierce) and 15 µg run on 4–12% Bis-Tris gel (Biorad). The protein was transferred onto nitrocellulose membrane (GE Healthcare) and probed with the relevant antibody at 4°C overnight (Cell Signaling: anti-Smad 1 (#9743), anti-P-Smad 1/5/8 (#9511), anti-Smad 2 (#5339), anti-P-Smad 2 (#3101). After subsequent incubation with HRP-conjugated anti-rabbit antibody, protein bands were detected using ECL (Pierce) and an LAS4000 image reader. Cells were purchased originally from the European Collection of Cell Cultures (ECACC) available through Sigma.

In experiment [21] the test system is BMP6-induced Smad1/5/8 phosphorylation in C2C12 cells. Description: BMP6-induced Smad1/5/8 phosphorylation, Western blot. It counts as cell-based. The settings on record: for inhibition of BMP6-induced Smad1/5/8 phosphorylation: qualitative. As for the experimental part: as §2
Experiment [22] deals with SIK. Description: Nanosyn kinase profiling. It counts as biochemical, human. As for the experimental part:
(§3) Percentage inhibition was determined for each kinase at both 0.1 µM and 1 µM inhibitor concentration (supplemental Table S2). […]. […]. When visualized on a kinase phylogenetic tree, these were primarily clustered within the receptor tyrosine kinases (TKs) as well as the calmodulin-dependent kinases (CAMKs) (Figure 2C).
(§4) Inhibitor selectivity profiling against 200 human kinases at 0.1 and 1 µM inhibitor concentration was performed by Nanosyn (www.nanosyn.com).

Experiment [23] concerns panel of 200 human kinases. Description: Kinome-wide selectivity, number of kinases inhibited. It counts as biochemical. The settings on record: 1 µM inhibitor; 200 kinases. As for the experimental part:
as §3, §4

T15 sequence (Q9UEE5 whole entry): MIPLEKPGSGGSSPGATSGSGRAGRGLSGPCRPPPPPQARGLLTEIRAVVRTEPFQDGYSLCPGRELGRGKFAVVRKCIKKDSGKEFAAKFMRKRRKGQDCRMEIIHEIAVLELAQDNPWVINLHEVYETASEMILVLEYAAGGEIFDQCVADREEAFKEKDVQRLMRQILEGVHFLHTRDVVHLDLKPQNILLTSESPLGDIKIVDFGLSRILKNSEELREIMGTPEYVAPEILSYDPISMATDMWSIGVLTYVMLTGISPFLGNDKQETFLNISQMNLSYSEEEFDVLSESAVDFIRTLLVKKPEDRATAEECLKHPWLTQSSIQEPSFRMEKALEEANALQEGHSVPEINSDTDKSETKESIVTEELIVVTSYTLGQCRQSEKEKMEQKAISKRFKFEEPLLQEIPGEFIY
T10 sequence (Q9Y243 whole entry): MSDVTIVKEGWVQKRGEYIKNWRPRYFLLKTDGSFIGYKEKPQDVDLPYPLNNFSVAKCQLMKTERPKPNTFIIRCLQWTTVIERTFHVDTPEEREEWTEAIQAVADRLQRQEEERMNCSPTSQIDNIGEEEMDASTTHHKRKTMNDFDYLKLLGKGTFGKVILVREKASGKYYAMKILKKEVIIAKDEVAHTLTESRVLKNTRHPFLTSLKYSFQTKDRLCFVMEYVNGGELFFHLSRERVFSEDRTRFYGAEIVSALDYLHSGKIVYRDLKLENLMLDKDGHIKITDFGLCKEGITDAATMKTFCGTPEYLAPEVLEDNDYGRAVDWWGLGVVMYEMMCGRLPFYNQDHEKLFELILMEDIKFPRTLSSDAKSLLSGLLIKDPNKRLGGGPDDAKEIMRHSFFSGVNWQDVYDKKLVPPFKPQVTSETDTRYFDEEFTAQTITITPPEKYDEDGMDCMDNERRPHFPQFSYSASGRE
T16 sequence (O14976 whole entry): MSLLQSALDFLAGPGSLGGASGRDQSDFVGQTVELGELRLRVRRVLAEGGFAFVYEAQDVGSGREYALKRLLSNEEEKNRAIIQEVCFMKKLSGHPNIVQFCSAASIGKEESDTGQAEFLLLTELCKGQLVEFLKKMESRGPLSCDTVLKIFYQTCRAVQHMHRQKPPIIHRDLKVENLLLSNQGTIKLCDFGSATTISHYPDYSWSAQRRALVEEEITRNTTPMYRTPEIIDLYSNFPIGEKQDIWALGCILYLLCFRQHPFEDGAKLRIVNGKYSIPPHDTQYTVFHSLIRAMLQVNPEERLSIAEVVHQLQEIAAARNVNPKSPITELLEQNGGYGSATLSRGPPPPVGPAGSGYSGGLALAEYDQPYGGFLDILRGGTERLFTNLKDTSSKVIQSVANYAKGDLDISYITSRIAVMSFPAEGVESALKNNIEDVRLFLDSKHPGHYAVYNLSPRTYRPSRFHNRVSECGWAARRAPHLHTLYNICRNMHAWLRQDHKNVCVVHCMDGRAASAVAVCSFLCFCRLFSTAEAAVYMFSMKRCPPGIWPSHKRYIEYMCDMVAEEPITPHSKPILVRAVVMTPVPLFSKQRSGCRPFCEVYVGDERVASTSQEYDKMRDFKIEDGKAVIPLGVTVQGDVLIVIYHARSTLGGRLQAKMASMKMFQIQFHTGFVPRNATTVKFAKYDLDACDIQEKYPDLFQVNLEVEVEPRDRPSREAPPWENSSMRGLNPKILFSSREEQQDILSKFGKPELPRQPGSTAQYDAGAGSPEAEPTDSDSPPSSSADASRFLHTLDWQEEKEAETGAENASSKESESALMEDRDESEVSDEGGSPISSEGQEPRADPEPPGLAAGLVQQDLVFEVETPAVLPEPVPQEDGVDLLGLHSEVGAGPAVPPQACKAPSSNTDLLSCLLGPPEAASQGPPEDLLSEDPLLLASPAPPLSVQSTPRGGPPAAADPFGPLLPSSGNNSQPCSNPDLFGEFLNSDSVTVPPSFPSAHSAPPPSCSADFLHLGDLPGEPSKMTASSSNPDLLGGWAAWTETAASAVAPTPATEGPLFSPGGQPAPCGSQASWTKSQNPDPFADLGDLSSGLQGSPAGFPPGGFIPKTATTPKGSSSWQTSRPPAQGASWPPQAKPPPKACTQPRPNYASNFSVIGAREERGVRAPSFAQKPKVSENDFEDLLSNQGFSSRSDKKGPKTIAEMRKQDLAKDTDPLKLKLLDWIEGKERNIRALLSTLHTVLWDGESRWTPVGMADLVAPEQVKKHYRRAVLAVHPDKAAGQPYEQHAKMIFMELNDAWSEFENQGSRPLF
T2 sequence (Q00536 whole entry): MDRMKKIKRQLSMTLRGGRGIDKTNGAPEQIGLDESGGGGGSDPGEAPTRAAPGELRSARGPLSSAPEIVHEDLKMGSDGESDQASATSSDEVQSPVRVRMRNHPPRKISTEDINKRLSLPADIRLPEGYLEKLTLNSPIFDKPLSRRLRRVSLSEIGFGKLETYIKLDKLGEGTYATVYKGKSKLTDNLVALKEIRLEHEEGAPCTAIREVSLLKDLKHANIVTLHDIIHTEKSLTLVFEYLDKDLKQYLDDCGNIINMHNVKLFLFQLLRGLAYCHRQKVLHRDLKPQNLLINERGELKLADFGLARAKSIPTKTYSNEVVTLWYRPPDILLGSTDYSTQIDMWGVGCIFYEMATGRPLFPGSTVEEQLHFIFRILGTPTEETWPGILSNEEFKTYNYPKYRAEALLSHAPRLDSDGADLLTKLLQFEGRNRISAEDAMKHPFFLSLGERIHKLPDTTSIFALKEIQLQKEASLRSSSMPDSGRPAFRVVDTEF
T7 sequence (Q2M2I8 whole entry): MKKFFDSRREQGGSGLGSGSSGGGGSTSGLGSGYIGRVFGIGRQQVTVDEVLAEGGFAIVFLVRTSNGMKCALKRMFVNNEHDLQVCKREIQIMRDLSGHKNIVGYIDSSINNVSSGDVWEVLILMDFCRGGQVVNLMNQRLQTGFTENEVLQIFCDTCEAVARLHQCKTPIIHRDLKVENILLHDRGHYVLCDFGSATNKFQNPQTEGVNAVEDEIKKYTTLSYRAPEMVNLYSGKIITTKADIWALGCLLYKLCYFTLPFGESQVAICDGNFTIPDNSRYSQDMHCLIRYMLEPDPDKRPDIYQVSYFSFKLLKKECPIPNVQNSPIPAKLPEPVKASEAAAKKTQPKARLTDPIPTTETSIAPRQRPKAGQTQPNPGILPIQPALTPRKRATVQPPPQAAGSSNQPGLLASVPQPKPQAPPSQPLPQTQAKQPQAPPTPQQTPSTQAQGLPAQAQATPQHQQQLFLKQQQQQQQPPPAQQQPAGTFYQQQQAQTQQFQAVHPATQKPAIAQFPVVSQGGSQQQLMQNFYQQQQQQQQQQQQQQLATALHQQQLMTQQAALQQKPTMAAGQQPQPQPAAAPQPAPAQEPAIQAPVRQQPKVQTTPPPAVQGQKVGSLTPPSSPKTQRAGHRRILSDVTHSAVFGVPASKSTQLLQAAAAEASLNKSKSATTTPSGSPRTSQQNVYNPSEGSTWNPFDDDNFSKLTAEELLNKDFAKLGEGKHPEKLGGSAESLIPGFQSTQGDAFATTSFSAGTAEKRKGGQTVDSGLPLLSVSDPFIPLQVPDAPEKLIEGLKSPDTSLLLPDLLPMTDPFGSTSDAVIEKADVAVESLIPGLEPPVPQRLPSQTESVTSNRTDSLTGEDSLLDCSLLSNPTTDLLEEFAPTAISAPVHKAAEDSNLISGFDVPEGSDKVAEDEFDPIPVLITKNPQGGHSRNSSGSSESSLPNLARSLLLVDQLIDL
T11 sequence (P24723 whole entry): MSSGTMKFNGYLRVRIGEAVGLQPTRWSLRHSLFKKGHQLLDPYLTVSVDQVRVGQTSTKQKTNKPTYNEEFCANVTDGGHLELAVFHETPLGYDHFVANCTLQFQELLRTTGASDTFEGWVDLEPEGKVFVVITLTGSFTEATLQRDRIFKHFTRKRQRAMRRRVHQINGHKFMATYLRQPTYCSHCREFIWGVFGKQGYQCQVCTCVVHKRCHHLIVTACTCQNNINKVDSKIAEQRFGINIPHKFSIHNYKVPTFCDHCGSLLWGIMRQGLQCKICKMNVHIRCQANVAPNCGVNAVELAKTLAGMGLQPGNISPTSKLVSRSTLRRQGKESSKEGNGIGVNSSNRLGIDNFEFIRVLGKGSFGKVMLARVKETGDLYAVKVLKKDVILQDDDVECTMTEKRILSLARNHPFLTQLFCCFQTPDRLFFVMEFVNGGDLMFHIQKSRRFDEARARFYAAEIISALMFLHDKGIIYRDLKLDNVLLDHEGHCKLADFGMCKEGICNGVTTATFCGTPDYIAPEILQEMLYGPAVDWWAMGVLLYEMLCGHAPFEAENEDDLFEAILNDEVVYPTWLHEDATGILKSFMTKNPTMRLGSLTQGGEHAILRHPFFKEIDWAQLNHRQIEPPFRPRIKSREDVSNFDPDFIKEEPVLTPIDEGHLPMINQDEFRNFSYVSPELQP
T18 sequence (P35626 whole entry): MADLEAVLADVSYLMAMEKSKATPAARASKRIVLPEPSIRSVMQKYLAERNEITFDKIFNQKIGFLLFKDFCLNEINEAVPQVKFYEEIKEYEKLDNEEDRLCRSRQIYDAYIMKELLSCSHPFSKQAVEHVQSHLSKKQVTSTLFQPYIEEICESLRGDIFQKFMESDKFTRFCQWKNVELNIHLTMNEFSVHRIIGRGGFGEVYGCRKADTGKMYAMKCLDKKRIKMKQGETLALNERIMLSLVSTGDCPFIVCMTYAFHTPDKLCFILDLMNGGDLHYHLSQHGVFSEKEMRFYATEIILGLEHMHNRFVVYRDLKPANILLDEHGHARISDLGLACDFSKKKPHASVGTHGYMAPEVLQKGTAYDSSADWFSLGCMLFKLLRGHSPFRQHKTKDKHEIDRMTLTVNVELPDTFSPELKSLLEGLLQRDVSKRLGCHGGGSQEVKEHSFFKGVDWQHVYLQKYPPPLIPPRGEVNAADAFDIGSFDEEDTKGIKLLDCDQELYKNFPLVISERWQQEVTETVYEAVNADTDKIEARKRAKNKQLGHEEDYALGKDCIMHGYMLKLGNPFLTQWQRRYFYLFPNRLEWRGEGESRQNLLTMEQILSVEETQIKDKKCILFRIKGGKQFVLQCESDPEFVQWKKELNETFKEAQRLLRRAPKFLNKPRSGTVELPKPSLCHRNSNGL

As for `c1cc(-c2cnn3cc(-c4ccc(OCCN5CCCCC5)cc4)cnc23)ccn1` [Dorsomorphin], the pIC50 in experiment [1] was 7.60. Also, the ΔTm at 10 µM in experiment [2] turned out to be 3.8 °C; in experiment [3], 4.7 °C; in experiment [4] it was 8.3 °C; in experiment [5], 0.1 °C; in experiment [6] it was 0.3 °C; in experiment [7], 4.4 °C. The ΔTm at 10 µM in experiment [8] was 3.8 °C; in experiment [9], 2 °C; in experiment [10], 4.3 °C; in [11], 0.5 °C; in experiment [12] it was 0.9 °C; in [13], 10.6 °C. The ΔTm at 10 µM in experiment [14] is 1.2 °C; in experiment [15] it was 12.4 °C; in experiment [16], 9 °C; in experiment [17] it was 4.3 °C; in experiment [18] it was 4.2 °C; in experiment [19], -0.1 °C.

In the case of `COc1cc(-c2cc(-c3cccc(O)c3)cnc2N)cc(OC)c1OC` [K02288, 3-[6-amino-5-(3,4,5-trimethoxy-phenyl)-pyridin-3-yl]-phenol], in [20], the “inhibition of Smad2 phosphorylation” value is on record as “near complete inhibition”. Besides, the “inhibition of Activin A-induced P-Smad2” value in experiment [20] is “weakly inhibited”. The “inhibition of Smad1/5/8 phosphorylation” value in [21] (50 nM, BMP6) is listed as “near complete inhibition”. Moreover, the pIC50 in experiment [21] (Mus musculus, read-out: IC50 against BMP6 signaling) was more than 7.30. In addition, the “inhibition of BMP6-induced Smad1/5/8 phosphorylation” value in [21] is on record as “potently inhibited”. Moreover, the Percentage inhibition in experiment [22] (0.1 µM inhibitor) was 9.4%; in experiment [22] (1 µM inhibitor), 57%. The “further kinases with >50% inhibition (beyond ABL and ARG)” value in experiment [23] is on record as 6 kinases. The ΔTm at 10 µM in experiment [2] was 0.3 °C; in [3], -1.8 °C; in [4], -0.1 °C; in [5], 0.2 °C; in experiment [6], 0.1 °C; in [7] it was -0.9 °C. The ΔTm at 10 µM was 0.5 °C in experiment [8]; 0 °C in experiment [9]; 1 °C in experiment [10]; 0.5 °C in [11]; 1.2 °C in [12]; 14.2 °C in [13]. Besides, the ΔTm at 10 µM in [14] worked out at 2 °C; in [15] it was 13.9 °C; in experiment [16] it was 1 °C; in experiment [17], 6.9 °C; in experiment [18], 6.1 °C; in experiment [19], 0.1 °C.

As for `c1ccc2c(-c3cnn4cc(-c5ccc(N6CCNCC6)cc5)cnc34)ccnc2c1` [LDN-193189], in [20], the “inhibition of Smad2 phosphorylation” value is “near complete inhibition” and the “inhibition of Activin A-induced P-Smad2” value was “weakly inhibited”. Moreover, the “inhibition of BMP6-induced Smad1/5/8 phosphorylation” value in experiment [21] is on record as “potently inhibited”. Besides, in experiment [22] (0.1 µM inhibitor, 0.1 µM), the Percentage inhibition is 63% and > 50%. In experiment [22] (1 µM inhibitor), this compound displayed a Percentage inhibition of 96%. In experiment [23], the “number of kinases with >50% inhibition” value worked out at 21 kinases. Also, the negative logarithm of the IC50 (pIC50) in [1] was 6.67.

By pIC50 is commonly meant the negative decadic logarithm of the IC50, by convention in mol/L.
